In US8143240B2, “17α, 21-dihydroxypregnene esters as antiandrogenic agents” (Cosmo S.p.A., priority 2001, dated 2012):

Tested on: flank organ
Experiment: topical antiandrogenic activity test (hamster flank organ, Voigt and Hsia)
Type: in vivo, hamsters
Settings: 21 days
Method: The test was carried out on sexually immature female hamsters aged 6-8 weeks and weighing 65-90 grams.
At the beginning of the tests, the back of each animal was shaved to evidence the respective flank organ bilaterally. Animals were then subdivided into homogeneous groups and treated daily for 21 consecutive days. The tested steroids were dissolved at concentrations ranging from 100 to 400 micrograms in 50 microliters of an acetone solution containing 4 micrograms of testosterone propionate (TP) or 4 micrograms of dihydrotestosterone (DHT). 50 microliters of the solutions were applied to the right flank organ, while the contralateral organ used as individual control received only acetone (50 microliters). Control groups received TP or DHT alone, following the same procedures.
At the end of the tests, the animals were killed under ether anesthesia and the whole skine of the back was taken. The area of both flank organs was measured, separately, with transillumination. The mean differences between areas treated with the tested steroids and those treated with the carrier alone were calculated for each group, and said mean differences were compared, as inhibition percentages, to the mean differences between the areas in the control groups treated with either TP or DHT.

[1] = DHT 4 μg + compound 400 μg daily, topical on right flank organ, female hamsters
[2] = TP 4 μg + compound 400 μg daily, topical on right flank organ, female hamsters
[3] = versus DHT control, DHT 4 μg + compound 400 μg daily, topical
[4] = versus TP control, TP 4 μg + compound 400 μg daily, topical
[5] = androgen alone (control group), 4 μg daily, topical

Row | Compound | Mean difference of the areas [1] [mm^2] | Mean difference of the areas [2] [mm^2] | % inhibition [3] [%] | % inhibition [4] [%] | Mean difference of the areas [5] [mm^2]
1 | CCC(=O)O[C@]1(C(=O)CO)CC[C@H]2[C@@H]3CCC4=CC(=O)CC[C@]4(C)C3=CC[C@@]21C [Compound A, 17α-propionyl-21-hydroxy-pregna-4,9-diene-3,20-dione] | 9.7 ± 1.8 | 3.7 ± 1.1 | 53 | 84 | 
2 | C[C@]12CCC(=O)C[C@@H]1CC[C@@H]1[C@@H]2CC[C@]2(C)[C@@H](O)CC[C@@H]12 [DHT, dihydrotestosterone, reference compound] |  |  |  |  | 20.8 ± 2.5
3 | CCCC(=O)OCC(=O)[C@@]1(OC(=O)CCC)CC[C@H]2[C@@H]3CCC4=CC(=O)CC[C@]4(C)C3=CC[C@@]21C [Ex. 1, 17α,21-dibutanoyl-pregna-4,9-diene-3,20-dione] | 3.7 ± 0.7 | 2.4 ± 1.1 | 82 | 89 | 
4 | CCCC(=O)OCC(=O)[C@@]1(O)CC[C@H]2[C@@H]3CCC4=CC(=O)CC[C@]4(C)C3=CC[C@@]21C [Ex. 2, 17α-hydroxy-21-butanoyl-pregna-4,9-diene-3,20-dione] | 4.1 ± 0.5 | 3.3 ± 1.2 | 80 | 85 | 
5 | CCC(=O)O[C@H]1CC[C@H]2[C@@H]3CCC4=CC(=O)CC[C@]4(C)[C@H]3CC[C@]12C [TP, testosterone propionate, reference compound] |  |  |  |  | 22.7 ± 2.3
